The source of these data is a melting point compilation (Tetko et al.; mined from patent text by program, amines drawn as free bases though some values may be those of a salt).

Where only a bound is given, the exact number is not on record here.

For the compound `COc1cc(CCI)cc2c1OCO2`, the melting point – broadly, the temperature of the solid-liquid transition – is 78 to 80 °C. As for `CCCCCCOc1ccc(O)c2cc(C)c(C)cc12`, the melting point was in the range of 72 to 73 °C.

`FC(F)(F)c1ccc(-c2cc(Oc3ccc4cccnc4c3)ncn2)c(OCCN2CCOCC2)c1` showed a melting point of 132 to 133 °C. The same measure for `CN1C(=O)C(C(=O)Nc2ccccc2)c2cc3c(cc2S1(=O)=O)CCCC3` (centres undefined): 203 to 204 °C; for `CCCOc1cc(CCCOc2nn(C)cc2CC(=O)O)n(Cc2ccc(Cl)cc2Cl)n1`: 77 to 81 °C; for `CN(CCCCC(=O)OC[C@@H]1CC(c2ccc(-c3ccc(N4C[C@H](Cn5ccnn5)OC4=O)cc3F)cn2)=NO1)C(=O)OC(C)(C)C`: 121 °C. Turning to `CC(C)n1nc(-c2ccc(N)nc2-c2ccccc2)ccc1=O`, the melting point lay within 167 to 171 °C.

`OC[C@@H]1Cc2ccccc2CN1C(=S)Nc1cccnc1` displayed a melting point of 192 °C. `O=c1c2c(c3cccnc3n1-c1cccc(Cl)c1)OC(CO)C2` (centres undefined) gave a melting point of 243 to 245 °C. The same measure for `CC(C)(C)OC(=O)N[C@@H](Cc1ccccc1)[C@@H](O)CO`: 95 to 96 °C; for `O=C(NCCN1CCOCC1)NCc1ccc2c(c1)Cc1c(-c3ccsc3)n[nH]c1-2`: 168 to 170 °C; for `CCOC(=O)c1c(C(F)(F)F)n(C)cc(-c2cc(OC(C)C)c(Cl)cc2F)c1=O`: 170 to 172 °C.

In turn, `Nc1cccc(-c2ccc(CCN3CCN(C(=O)c4ccco4)CC3)cc2)n1` returned a melting point of 152 to 154 °C.

Compound `CC(=O)NCC1CN(c2ccc(N3CCN(c4nc5ccccc5s4)CC3)c(F)c2)C(=O)O1` (centres undefined) had a melting point of 239 to 240 °C. The value for `CCc1cn(S(=O)(=O)c2ccc(C)cc2)c2cc(C(=O)Nc3c(Cl)cncc3Cl)ccc12` was 147 to 149 °C; that for `COc1ccc(C(=O)c2coc(C(=O)O)cc2=O)cc1` was 185 to 190 °C. The same measure for `COc1ccnc(CO)c1OC`: 87 to 89 °C. In turn, `CC(=O)Nc1ccc(S(=O)(=O)c2cccc3cnccc23)cc1` registered a melting point of 240 to 244 °C. As to `COc1ccc(Nc2nc(Nc3ccc(OC)c(Cl)c3)nc(NC3CCCCCC3)n2)cc1Cl`, the melting point came out at 183 °C. The value for `CC1(C)CCOC1(O)Cn1cncn1` (centres undefined) was 93 to 95 °C. `CCCCCCn1c(-c2ccc(Cl)c(S(=O)(=O)N(C)C)c2)csc1=Nc1ccccc1` yielded a melting point of 86 °C. `CCNC(=O)N1N=C(c2ccc([N+](=O)[O-])cc2)c2cc(Cl)ccc2CC1C` (centres undefined) came in with a melting point of 170 to 172 °C.

In turn, `CCS(=O)(=O)Oc1cccc([N+](=O)[O-])c1` gave a melting point of 110 °C. In turn, `COC(=O)c1nc(-c2ccc(Cl)cc2F)nc(N)c1Cl` yielded a melting point of 194 to 196 °C.

For `CC(C)(C)C(=O)Nc1nc(O)c2cc(C#C[Si](C)(C)C)cnc2n1`, the melting point was > 250 °C. As to `Cc1cc(F)ccc1-c1nc(OCCNC(=O)OC(C)(C)C)nc2c1ccc(=O)n2-c1c(F)cccc1F`, the melting point was in the range of 103 to 105 °C. Compound `Cc1ccc(S(=O)(=O)OC[C@@H](O)Cc2cc3ccccc3[nH]2)cc1` showed a melting point of 96 to 97 °C. `Cc1oc(-c2ccco2)nc1COc1ccc(Cn2cc(CCC(=O)O)c(-c3ccc(C(F)(F)F)cc3)n2)cc1` registered a melting point of 92 to 93 °C. The value for `CC(=O)Oc1ccc([N+](=O)[O-])cc1C1(OC(C)=O)C(=O)c2ccccc2C1=O` was 163 to 167 °C. In turn, `O=[N+]([O-])c1ccc(NN=C(Cl)c2ccccc2)cc1` came in with a melting point of 195 to 196 °C. The same measure for `O=C(CCCCCNCC(O)c1ccccc1)OCc1ccccc1` (centres undefined): 77 to 78 °C; for `C=CCOc1ccc2nc(S(N)(=O)=O)sc2c1`: 184 to 187 °C; for `Nc1ccc(S(N)(=O)=O)c2c1CCCC2`: 216 to 219 °C. `COc1ccc(-c2cc(CCCN3CCN(C)CC3)c(=O)n(Cc3ccc(F)cc3)n2)cc1F` returned a melting point of 108 to 109 °C.

`Cc1cc2n(c1)Cc1cc(Cl)ccc1N=C2N1CCN(CC(C)(C)C(=O)O)CC1` yielded a melting point of 246 °C. The value for `C/C(=C\c1ccc(C(=O)O)cc1)c1ccc2c(c1)CCCCC2` was 198 °C. The same measure for `ON=Cc1ncc(-c2ccccc2)o1`: 208 to 210 °C; for `CCCCCCCCCCCCCCCC(=O)NC(C)CO` (centres undefined): 75 to 76 °C. On to `CC(C)c1ccc(N(Cc2ccc(N(C)C)cc2)C(=O)C2CCOc3c(C#N)cccc32)cc1` (centres undefined), for which the melting point worked out at 179 °C. The value for `O=C1c2ccccc2C(=O)N1CCON=C1c2ccccc2-n2cccc21` was 195 °C; that for `CCOC(=O)C1=C(C)NC(N)=C(C(=O)OCC)C1C` (centres undefined) was 140 °C; that for `CCOC(=O)c1cc(=O)c2c(OCC(O)COc3ccc(Cl)cc3)cccc2o1` (centres undefined) was 98 to 100 °C.

Consider `COC1([N+](=O)[O-])C=CC(C=Cc2ccccc2)=CC1` (centres undefined), for which the melting point is 131 to 132 °C. The value for `CCOC(Cc1ccc(OCc2nc(C3CC3)oc2C)c2ccsc12)C(=O)O` (centres undefined) was 153 to 154 °C; that for `CC(C)CC(NC(=O)N1CCc2cc(S(=O)(=O)N3CCN(c4cccc(Cl)c4)CC3)ccc21)C(=O)O` (centres undefined) was 138 to 140 °C; that for `CCOC(=O)CC(NC(=O)c1ccc(Cl)cc1)C(=O)c1ccsc1` (centres undefined) was 106 to 108 °C. The compound `Cc1ccc2c(c1)C(=O)CCC21CCC(=O)NC1=O` (centres undefined) displayed a melting point of 252 to 254 °C.

Take `CCOC(=O)C=Cc1ccc2c(c1)CC(CNC(=O)OC(C)(C)C)CC2` (centres undefined): the melting point lay within 117 to 119 °C. The same measure for `C=C(c1ccccc1OCCCCl)c1cccc2[nH]ccc12`: 70 to 72 °C; for `COC(=O)c1nc2cc(OC)c(OC)cc2n(C)c1=O`: 222 °C. The same measure for `COc1ccc(CCNc2nc(N)c3nc(-c4ccco4)oc3n2)cc1`: 194 to 196 °C; for `O=C(O)CN(C(=O)Cc1ccc(Cl)c(Cl)c1)[C@H](CN1CC[C@H](O)C1)c1ccccc1`: 162 to 164 °C; for `CCOC(=O)C1COc2ccc(C(C)=O)cc2O1` (centres undefined): 57 °C. The same measure for `O=S1(=O)NCN(C2CCCCCCC2)c2cc(Cl)c(Cl)cc21`: 154 to 155 °C; for `CC(=O)Nc1ccc(NC(=O)C=C2CC(C(=O)OCc3ccccc3)Nc3cc(Cl)cc(Cl)c32)cc1` (racemic): 275 °C.

The compound `CC(C)CCCC(C)C1CCC2C3CCC4CC(OC=O)CCC4(C)C3CCC12C` (centres undefined) registered a melting point of 107 to 108 °C.

Regarding `COc1cccc(OC)c1-c1cc(C(=O)N[C@H](C(=O)O)C2CCCCC2)nn1-c1ccc(C(N)=O)c2ccccc12`, the melting point was determined as 186 °C.

For the compound `CC(=O)Nc1ccc(S(=O)(=O)N(C)c2ccc(O)cc2)cc1`, the melting point is 202 to 203 °C. `CSc1ccc(N2CCOC2=O)cc1[N+](=O)[O-]`: the melting point turned out to be 180 °C. Compound `CC(=O)OCC(CCc1nc2nc(N)nc(SCCC(=O)c3ccccc3)c2[nH]1)COC(C)=O` showed a melting point of 130 to 131 °C. In turn, `Cn1c(C(F)(F)F)cc(=O)n(-c2cc(C=O)c(Cl)cc2Cl)c1=O` displayed a melting point of 117 to 120 °C.

Regarding `CC(C)(C)OC(=O)Cn1cccc(NC(=O)OCc2ccccc2)c1=O`, the melting point fell in the range of 88 to 90 °C. For `CCOC(=O)c1cccn1Cc1ccc(Cl)cc1[N+](=O)[O-]`, the melting point is 104 to 106 °C. The same measure for `CON1C(C)(C)CC(OC(=O)c2ccc(C(=O)OC3CC(C)(C)N(OC)C(C)(C)C3)cc2)CC1(C)C`: 179 to 181 °C; for `O=C(O)c1cccc(=O)n1OCc1ccccc1`: 176 to 177 °C; for `N#Cc1ccc(COc2cccc(F)c2)cc1`: 69 to 70 °C. The value for `CC(C)(C)OC(=O)N1CCC(c2nc3cc(-c4ccc(-n5cnnn5)cc4)ccc3o2)CC1` was 207 to 211 °C; that for `CC(=O)N(O)C(C)c1ccccc1Nc1c(Cl)ccc(C)c1Cl` (centres undefined) was 185 to 187 °C. The same measure for `COc1ccc2c(C3OC(=O)NC3=O)c(OC)ccc2c1` (centres undefined): 175 to 180 °C. `COC(=O)c1cc(OC)ccc1N(CC#N)c1ccccc1` yielded a melting point of 107 to 109 °C.

The compound `COc1ccc2nc(-c3c[nH]c4ccccc34)[nH]c(=O)c2c1` returned a melting point of 311 to 312 °C. The value for `Cc1[nH]n(-c2ccccc2)c(=O)c1C(=O)C(C)C` was 61 to 62 °C; that for `CNC(=O)NS(=O)(=O)c1ccccc1OCCCl` was 218 to 222 °C. The value for `COCc1nc(C(=O)OC)c(C(=O)OC)[nH]1` was 93 to 95 °C. Regarding `Cc1c(C)c2c(c(C)c1O)C(=O)CC(COc1ccc(CC3SC(=O)NC3=O)cc1)O2` (centres undefined), the melting point fell in the range of 249 to 252 °C. The same measure for `CC1(C)CC(=O)Oc2ccc(O)cc21`: 95 to 96 °C. `COC1(c2cc(Sc3ccc(/C(C)=N/O)cc3)nc(N)n2)CCOCC1` came in with a melting point of 237 to 240 °C. Compound `CC(=O)C(C#N)c1cc(Cl)cc(Cl)c1Cl` (centres undefined) gave a melting point of 134 to 135 °C.

`COC(=O)c1cc(S(=O)(=O)NC(=O)Nc2nc(C)cc(C)n2)c[nH]1` yielded a melting point of 202 to 204 °C. The value for `CC(C)(C)OC(=O)Nc1cc(-c2nnc(CCc3cccc(F)c3)o2)ccn1` was 256 to 257 °C. As to `O=C1N[C@H]2CCN(C(=O)OCc3ccccc3)[C@H]2[C@H]1C1CC1` (relative stereo), the melting point fell in the range of 141 to 149 °C. `COc1ccc2c(c1)cc(C=O)n2C` yielded a melting point of 88 to 90 °C. `COC(=O)C=CC(C)=Cc1cc(N)ccc1Cl` showed a melting point of 47 to 50 °C. The same measure for `COc1cc2c(cc1OC)CN(CCCOc1ccc(N)cc1)CC2`: 100 °C; for `CC1(O)CCC2(C)C(CCC3C2CCC2(C)C(c4cc(CO)no4)CCC32)C1` (centres undefined): 192 to 193 °C; for `CC(C)Oc1ccc([N+](=O)[O-])cc1OCCN1C(=O)c2ccccc2C1=O`: 132 °C.

Take `c1ccc(CN2CC3(COc4cc5c(cc43)CCO5)c3c(-c4cccnc4)cccc32)nc1` (centres undefined): the melting point was > 200 °C. The value for `c1ccc(COc2ccc(OCC3CC3)cc2)cc1` was 96 °C; that for `NC(=O)c1c(-c2cccc(F)c2)c(Cl)n2c1CNCC2` was 226 to 228 °C.
